Source: patent US9481676B2, “Azepino[4,5-B]indoles and methods of use” (Medivation Technologies, Inc., priority 2008, dated 2016)

Key:
[1] = molecular target: T1, human recombinant dopamine D2L receptor (Homo sapiens, UniProt P14416); assay: Dopamine D2L radioligand binding ([3H]Spiperone); conditions: compound at 1 μM; read-out: Dopamine (1 μM) D2L, percent inhibition of specific binding
T1 construct: expressed in transfected cells; host or cells: CHO cells
How it was run: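 Human recombinant D2L receptor from CHO cells, in Tris-HCl buffer pH 7.4 with ascorbic acid, BSA and 150 mM NaCl; compounds at 1 μM or lower (1% DMSO) incubated with 0.16 nM [3H]spiperone, 120 min, 25° C. Nonspecific binding by 10 μM haloperidol; filter counting; % inhibition of specific binding.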

[2] = molecular target: T2, human recombinant serotonin (5-Hydroxytryptamine) 5-HT2A receptor (Homo sapiens, UniProt P28223); assay: Serotonin 5-HT2A radioligand binding ([3H]Ketanserin); conditions: compound at 1 μM; read-out: Serotonin (1 μM) 5-HT2A, percent inhibition of specific binding
T2 construct: expressed in transfected cells; host or cells: CHO-K1 cells
T2 sequence (P28223 whole entry): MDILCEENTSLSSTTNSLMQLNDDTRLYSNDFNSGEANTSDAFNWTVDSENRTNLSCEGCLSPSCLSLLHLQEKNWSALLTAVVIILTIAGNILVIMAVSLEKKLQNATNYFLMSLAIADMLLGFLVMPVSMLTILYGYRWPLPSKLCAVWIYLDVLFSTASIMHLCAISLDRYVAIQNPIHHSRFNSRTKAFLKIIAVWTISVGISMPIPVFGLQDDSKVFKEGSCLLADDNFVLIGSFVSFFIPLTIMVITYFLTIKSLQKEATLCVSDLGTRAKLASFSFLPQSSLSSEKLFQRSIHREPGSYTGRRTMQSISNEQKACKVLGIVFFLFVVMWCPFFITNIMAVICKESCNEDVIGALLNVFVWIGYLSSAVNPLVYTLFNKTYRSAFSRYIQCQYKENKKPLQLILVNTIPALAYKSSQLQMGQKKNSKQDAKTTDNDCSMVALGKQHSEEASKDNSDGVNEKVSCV
How it was run: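 Percent inhibition of specific [3H]ketanserin (0.5 nM) binding, filtration read-out, with compounds at ≤1 μM (1% DMSO vehicle). Receptor source: recombinant human 5-HT2A in CHO-K1 cells, 50 mM Tris-HCl pH 7.4, 60 min, 25 °C; 1 μM mianserin gives nonspecific binding.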

[3] = molecular target: T3, human recombinant adrenergic α2A receptor (Homo sapiens, UniProt P08913); assay: Adrenergic alpha2A radioligand binding ([3H]MK-912); conditions: compound at 1 μM; read-out: Adrenergic (1 μM) α2A, percent inhibition of specific binding
T3 construct: expressed in transfected cells; host or cells: insect Sf9 cells
T3 sequence (P08913 1-465): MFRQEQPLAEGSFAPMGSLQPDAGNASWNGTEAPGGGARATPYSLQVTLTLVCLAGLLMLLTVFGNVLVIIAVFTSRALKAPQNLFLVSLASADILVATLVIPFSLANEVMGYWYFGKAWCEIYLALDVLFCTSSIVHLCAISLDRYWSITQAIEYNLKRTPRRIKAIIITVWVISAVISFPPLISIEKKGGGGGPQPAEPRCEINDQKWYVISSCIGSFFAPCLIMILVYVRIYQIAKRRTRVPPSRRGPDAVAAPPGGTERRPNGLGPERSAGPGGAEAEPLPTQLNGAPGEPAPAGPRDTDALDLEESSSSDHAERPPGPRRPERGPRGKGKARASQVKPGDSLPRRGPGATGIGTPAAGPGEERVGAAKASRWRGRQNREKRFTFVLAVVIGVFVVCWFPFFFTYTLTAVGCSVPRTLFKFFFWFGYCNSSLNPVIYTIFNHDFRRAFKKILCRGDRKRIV
Description: To evaluate in radioligand binding assays the activity of compounds of the invention, human recombinant adrenergic α2A receptor expressed in insect Sf9 cells (Uhlen S et al. J Pharmacol Exp Ther. 271:1558, 1994) in a modified Tris-HCl buffer (50 mM Tris-HCl, pH 7.4, 12.5 mM MgCl2, 2 mM EDTA) was used. Compounds of invention were incubated with 1 nM [^3H]MK-912 for 60 min. at 25° C. MK912 is (2S-trans)-1,3,4,5′,6,6′,7,12b-octahydro-1′,3′-dimethyl-spiro[2 h-benzofuro [2,3-a]quinolizine-2,4′ (1′H)-pyrimidin]-2′ (3′H)-one hydrochloride Non-specific binding was estimated in the presence of 10 μM WB-4101 (2-(2,6-Dimethoxyphenoxyethyl)aminomethyl-1,4-benzodioxane hydrochloride). Receptor proteins were filtered and washed, the filters were then counted to determine [^3H]MK-912 specifically bound. Compounds were screened at 1 μM or lower, using 1% DMSO as vehicle. Biochemical assay results are presented as the percent inhibition of specific binding in Table 5.

[4] = molecular target: T4, human recombinant histamine H1 receptor (Homo sapiens, UniProt P35367); assay: Histamine H1 radioligand binding ([3H]Pyrilamine); conditions: compound at 1 μM; read-out: Histamine Binding (1 μM) H1, percent inhibition of specific binding
T4 construct: expressed in transfected cells; host or cells: CHO cells
T4 sequence (P35367 whole entry): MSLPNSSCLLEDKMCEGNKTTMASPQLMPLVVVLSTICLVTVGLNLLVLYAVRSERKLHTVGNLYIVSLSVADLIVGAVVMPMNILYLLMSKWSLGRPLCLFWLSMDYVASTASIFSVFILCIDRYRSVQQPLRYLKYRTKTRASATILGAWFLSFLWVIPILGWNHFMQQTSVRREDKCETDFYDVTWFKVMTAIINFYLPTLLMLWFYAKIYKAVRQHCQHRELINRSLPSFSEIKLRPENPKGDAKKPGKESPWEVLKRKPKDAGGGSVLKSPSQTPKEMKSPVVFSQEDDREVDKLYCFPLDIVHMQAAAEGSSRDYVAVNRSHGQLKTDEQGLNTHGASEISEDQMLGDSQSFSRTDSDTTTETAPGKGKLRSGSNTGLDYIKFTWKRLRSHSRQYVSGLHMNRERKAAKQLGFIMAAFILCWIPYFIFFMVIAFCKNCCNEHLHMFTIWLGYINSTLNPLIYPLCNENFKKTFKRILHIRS
How it was run: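 Membranes from CHO cells expressing the receptor were incubated with compound and 1.2 nM [3H]pyrilamine for 180 min at 25 °C in 50 mM Tris-HCl pH 7.4 with MgCl2, NaCl and sucrose; 1 μM pyrilamine defined non-specific binding. Filter-bound radioactivity was counted.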

[5] = molecular target: T5, human recombinant histamine H2 receptor (Homo sapiens, UniProt P25021); assay: Histamine H2 radioligand binding ([125I]Aminopotentidine); conditions: compound at 1 μM; read-out: Histamine Binding (1 μM) H2, percent inhibition of specific binding
T5 construct: expressed in transfected cells; host or cells: CHO-K1 cells
T5 sequence (P25021 whole entry): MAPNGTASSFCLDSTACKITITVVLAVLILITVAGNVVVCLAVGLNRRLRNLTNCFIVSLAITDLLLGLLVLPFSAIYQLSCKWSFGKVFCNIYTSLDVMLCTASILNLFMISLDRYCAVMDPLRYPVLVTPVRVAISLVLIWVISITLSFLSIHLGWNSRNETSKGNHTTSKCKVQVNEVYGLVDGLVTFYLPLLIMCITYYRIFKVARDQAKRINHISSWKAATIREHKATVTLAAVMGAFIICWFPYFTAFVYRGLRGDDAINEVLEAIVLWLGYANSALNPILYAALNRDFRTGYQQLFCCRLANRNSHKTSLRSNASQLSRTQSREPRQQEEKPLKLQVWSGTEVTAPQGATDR
How it was run: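 Membranes from CHO-K1 cells expressing recombinant human H2 receptor, in 50 mM phosphate buffer pH 7.4, incubated with 0.1 nM [125I]aminopotentidine for 120 min at 25 °C; nonspecific binding defined with 3 μM tiotidine.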

T1 sequence (P14416 whole entry): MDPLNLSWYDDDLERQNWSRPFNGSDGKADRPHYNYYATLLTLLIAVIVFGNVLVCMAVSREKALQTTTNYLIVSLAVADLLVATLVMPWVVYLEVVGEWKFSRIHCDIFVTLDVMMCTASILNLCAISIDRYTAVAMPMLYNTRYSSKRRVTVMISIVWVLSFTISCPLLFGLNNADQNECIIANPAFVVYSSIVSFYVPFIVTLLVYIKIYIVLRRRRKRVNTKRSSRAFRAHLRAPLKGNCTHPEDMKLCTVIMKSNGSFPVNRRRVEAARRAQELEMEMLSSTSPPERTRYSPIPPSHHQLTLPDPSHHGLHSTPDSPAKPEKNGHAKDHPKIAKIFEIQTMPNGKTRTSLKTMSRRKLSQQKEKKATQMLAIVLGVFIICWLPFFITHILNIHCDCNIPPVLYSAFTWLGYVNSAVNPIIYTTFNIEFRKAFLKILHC

Cc1ccc2c(c1)c1c(n2CC(=O)NC2CCCCC2)CCN(C)CC1 [Compound No. 22, N-cyclohexyl-2-(2,3,4,5-tetrahydro-3,9-dimethylazepino[4,5-b]indol-6(1H)-yl)acetamide]
inhibition at 1 µM [1]: 0%
inhibition at 1 µM [2]: -2%
inhibition at 1 µM [3]: -14%
inhibition at 1 µM [4]: 12%
inhibition at 1 µM [5]: 5%

Cc1ccc2c(c1)c1c(n2CC(O)c2ccc(C)nc2)CCN(C)CC1 (centres unmarked) [Compound No. 23, 2-(2,3,4,5-tetrahydro-3,9-dimethylazepino[4,5-b]indol-6(1H)-yl)-1-(6-methylpyridin-3-yl)ethanol]
inhibition at 1 µM [1]: 4%
inhibition at 1 µM [2]: 67%
inhibition at 1 µM [3]: 42%
inhibition at 1 µM [4]: 58%
inhibition at 1 µM [5]: -3%

CN1CCc2c(n(CC(O)c3ccccc3)c3ccc(Cl)cc23)CC1 (centres unmarked) [Compound No. 24, 2-(9-chloro-2,3,4,5-tetrahydro-3-methylazepino[4,5-b]indol-6(1H)-yl)-1-phenylethanol]
inhibition at 1 µM [1]: 41%
inhibition at 1 µM [2]: 98%
inhibition at 1 µM [3]: 100%
inhibition at 1 µM [4]: 100%
inhibition at 1 µM [5]: 58%

Cc1ccc2c(c1)c1c(n2CC(O)c2ccccc2)CCN(C)CC1 (centres unmarked) [Compound No. 25, 2-(2,3,4,5-tetrahydro-3,9-dimethylazepino[4,5-b]indol-6(1H)-yl)-1-phenylethanol]
inhibition at 1 µM [1]: 43%
inhibition at 1 µM [2]: 97%
inhibition at 1 µM [3]: 100%
inhibition at 1 µM [4]: 91%
inhibition at 1 µM [5]: 47%

Cc1ccc(C(O)Cn2c3c(c4cc(Cl)ccc42)CCN(C)CC3)cc1 (centres unmarked) [Compound No. 26, 2-(9-chloro-2,3,4,5-tetrahydro-3-methylazepino[4,5-b]indol-6(1H)-yl)-1-p-tolylethanol]
inhibition at 1 µM [1]: 65%
inhibition at 1 µM [2]: 100%
inhibition at 1 µM [3]: 99%
inhibition at 1 µM [4]: 97%
inhibition at 1 µM [5]: 84%

Cc1ccc(C(O)Cn2c3c(c4cc(C)ccc42)CCN(C)CC3)cc1 (centres unmarked) [Compound No. 27, 2-(2,3,4,5-tetrahydro-3,9-dimethylazepino[4,5-b]indol-6(1H)-yl)-1-p-tolylethanol]
inhibition at 1 µM [1]: 58%
inhibition at 1 µM [2]: 99%
inhibition at 1 µM [3]: 98%
inhibition at 1 µM [4]: 101%
inhibition at 1 µM [5]: 78%

Cc1ccc2c(c1)c1c(n2CCc2ccc(Cl)cc2)CCN(C)CC1 [Compound No. 28, 6-(4-chlorophenethyl)-1,2,3,4,5,6-hexahydro-3,9-dimethylazepino[4,5-b]indole]
inhibition at 1 µM [1]: 67%
inhibition at 1 µM [2]: 100%
inhibition at 1 µM [3]: 96%
inhibition at 1 µM [4]: 103%
inhibition at 1 µM [5]: 97%

CN1CCc2c(n(CCc3ccccc3Cl)c3ccc(Cl)cc23)CC1 [Compound No. 29, 6-(2-chlorophenethyl)-9-chloro-1,2,3,4,5,6-hexahydro-3-methylazepino[4,5-b]indole]
inhibition at 1 µM [1]: 67%
inhibition at 1 µM [2]: 100%
inhibition at 1 µM [3]: 101%
inhibition at 1 µM [4]: 98%
inhibition at 1 µM [5]: 105%

CN1CCc2c(n(CCc3ccc(Cl)cc3)c3ccc(Cl)cc23)CC1 [Compound No. 30, 6-(4-chlorophenethyl)-9-chloro-1,2,3,4,5,6-hexahydro-3-methylazepino[4,5-b]indole]
inhibition at 1 µM [1]: 53%
inhibition at 1 µM [2]: 100%
inhibition at 1 µM [3]: 99%
inhibition at 1 µM [4]: 102%
inhibition at 1 µM [5]: 97%

CC(C)NC(=O)Cn1c2c(c3cc(Cl)ccc31)CCN(C)CC2 [Compound No. 31, 2-(9-chloro-2,3,4,5-tetrahydro-3-methylazepino[4,5-b]indol-6(1H)-yl)-N-isopropylacetamide]
inhibition at 1 µM [1]: 4%
inhibition at 1 µM [2]: 43%
inhibition at 1 µM [3]: 31%
inhibition at 1 µM [4]: 14%
inhibition at 1 µM [5]: -10%

Cc1ccc2c(c1)c1c(n2CC(=O)N2CCCCC2)CCN(C)CC1 [Compound No. 32, 2-(2,3,4,5-tetrahydro-3,9-dimethylazepino[4,5-b]indol-6(1H)-yl)-1-(piperidin-1-yl)ethanone]
inhibition at 1 µM [1]: -1%
inhibition at 1 µM [2]: 60%
inhibition at 1 µM [3]: 39%
inhibition at 1 µM [4]: 11%
inhibition at 1 µM [5]: -5%

C/C(=C\n1c2c(c3cc(C)ccc31)CCN(C)CC2)c1ccc(Cl)cc1 [Compound No. 33, 6-((E)-2-(4-chlorophenyl)prop-1-enyl)-1,2,3,4,5,6-hexahydro-3,9-dimethylazepino[4,5-b]indole]
inhibition at 1 µM [1]: 35%
inhibition at 1 µM [2]: 100%
inhibition at 1 µM [3]: 97%
inhibition at 1 µM [4]: 87%
inhibition at 1 µM [5]: 101%

C/C(=C\n1c2c(c3cc(C)ccc31)CCN(C)CC2)c1ccc(F)cc1 [Compound No. 34, 6-((E)-2-(4-fluorophenyl)prop-1-enyl)-1,2,3,4,5,6-hexahydro-3,9-dimethylazepino[4,5-b]indole]
inhibition at 1 µM [1]: 90%
inhibition at 1 µM [2]: 98%
inhibition at 1 µM [3]: 94%
inhibition at 1 µM [4]: 95%
inhibition at 1 µM [5]: 103%

C=C(Cn1c2c(c3cc(Cl)ccc31)CCN(C)CC2)c1ccc(Cl)cc1 [Compound No. 35, 9-chloro-6-(2-(4-chlorophenyl)allyl)-3-methyl-1,2,3,4,5,6-hexahydroazepino[4,5-b]indole]
inhibition at 1 µM [1]: 50%
inhibition at 1 µM [2]: 99%
inhibition at 1 µM [3]: 93%
inhibition at 1 µM [4]: 100%
inhibition at 1 µM [5]: 104%

C/C(=C\n1c2c(c3cc(Cl)ccc31)CCN(C)CC2)c1ccc(Cl)cc1 [Compound No. 36, 9-chloro-6-((E)-2-(4-chlorophenyl)prop-1-enyl)-1,2,3,4,5,6-hexahydro-3-methylazepino[4,5-b]indole]
inhibition at 1 µM [1]: 34%
inhibition at 1 µM [2]: 97%
inhibition at 1 µM [3]: 96%
inhibition at 1 µM [4]: 88%
inhibition at 1 µM [5]: 104%

CN1CCc2c(n(CC(=O)Nc3ccc(F)cc3)c3ccc(Cl)cc23)CC1 [Compound No. 37, 2-(9-chloro-2,3,4,5-tetrahydro-3-methylazepino[4,5-b]indol-6(1H)-yl)-N-(4-fluorophenyl) acetamide]
inhibition at 1 µM [1]: 9%
inhibition at 1 µM [2]: 91%
inhibition at 1 µM [3]: 68%
inhibition at 1 µM [4]: 13%
inhibition at 1 µM [5]: 4%

Cc1ccc2c(c1)c1c(n2CC(=O)N2CCOCC2)CCN(C)CC1 [Compound No. 38, 2-(2,3,4,5-tetrahydro-3,9-dimethylazepino[4,5-b]indol-6(1H)-yl)-1-morpholinoethanone]
inhibition at 1 µM [1]: 21%
inhibition at 1 µM [2]: 96%
inhibition at 1 µM [3]: 77%
inhibition at 1 µM [4]: 83%
inhibition at 1 µM [5]: 26%

Cc1ccc2c(c1)c1c(n2/C=C/c2ccc(F)cc2)CCN(C)CC1 [Compound No. 39, 6-(4-fluorostyryl)-1,2,3,4,5,6-hexahydro-3,9-dimethylazepino[4,5-b]indole]
inhibition at 1 µM [1]: 66%
inhibition at 1 µM [2]: 98%
inhibition at 1 µM [3]: 98%
inhibition at 1 µM [4]: 98%
inhibition at 1 µM [5]: 91%

CN1CCc2c(n(CC(O)c3ccccc3F)c3ccc(Cl)cc23)CC1 (centres unmarked) [Compound No. 40, 2-(9-chloro-2,3,4,5-tetrahydro-3-methylazepino[4,5-b]indol-6(1H)-yl)-1-(2-fluorophenyl)ethanol]
inhibition at 1 µM [1]: 46%
inhibition at 1 µM [2]: 97%
inhibition at 1 µM [3]: 96%
inhibition at 1 µM [4]: 101%
inhibition at 1 µM [5]: 61%
